Test results taken from US20260285850A1, “SUBSTITUTED OXAZOLIDINONES AND IMIDAZOLINONES AS HERBICIDES” (FMC CORPORATION, priority 2023, published 2026).

Tests used:
Format in all cases: in vivo
[1] = tested on: soybean (Glycine max); assay: Test A postemergence application, visual injury rating 0-100; conditions: 10 days
Procedure, shortened: (§1)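 Directed preemergence spray onto seeded soil or postemergence spray onto 2-10 cm plants (loam plus sand); compound carried in surfactant-containing non-phytotoxic solvent. Injury rated by eye after 10 d greenhouse growth; 0 = no effect, 100 = complete control.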

[2] = tested on: galium (catchweed bedstraw, Galium aparine); assay: as above; conditions: 10 days
Procedure, shortened: as §1

[3] = tested on: wheat (Triticum aestivum); assay: as above; conditions: 10 days
Procedure, shortened: as §1

[4] = tested on: barnyardgrass (Echinochloa crus-galli); assay: as above; conditions: 10 days
Procedure, shortened: as §1

[5] = tested on: oat, wild (wild oat, Avena fatua); assay: as above; conditions: 10 days
Procedure, shortened: as §1

[6] = tested on: ragweed (common ragweed, Ambrosia artemisiifolia); assay: as above; conditions: 10 days
Procedure, shortened: as §1

[7] = tested on: ryegrass, Italian (italian ryegrass, Lolium multiflorum); assay: as above; conditions: 10 days
Procedure, shortened: as §1

[8] = tested on: palmer (palmer amaranth, palmer pigweed, Amaranthus palmeri); assay: as above; conditions: 10 days
Procedure, shortened: as §1

[9] = tested on: corn (Zea mays); assay: as above; conditions: 10 days
Procedure, shortened: as §1

[10] = tested on: kochia (Bassia scoparia); assay: as above; conditions: 10 days
Procedure, shortened: as §1

[11] = tested on: blackgrass (Alopecurus myosuroides); assay: as above; conditions: 10 days
Procedure, shortened: as §1

[12] = tested on: horseweed (Erigeron canadensis); assay: as above; conditions: 10 days
Procedure, shortened: as §1

[13] = tested on: sedge, umbrella (small-flower umbrella sedge, Cyperus difformis); assay: Test B flooded paddy test, visual plant response rating 0-100; conditions: 250 g ai/ha, Flood, applied to paddy water, evaluated after 13 days
Procedure, shortened: (§2)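 Plants were grown to the 2-leaf stage, then pots were flooded to 3 cm above the soil and test compounds were applied directly into the paddy water. Water depth was held there throughout; after 13 days in a greenhouse, injury was scored visually against untreated controls.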

[14] = tested on: rice (Oryza sativa); assay: as above; conditions: 250 g ai/ha, Flood, applied to paddy water, evaluated after 13 days
Procedure, shortened: as §2

[15] = tested on: barnyardgrass (Echinochloa crusgalli); assay: as above; conditions: 250 g ai/ha, Flood, applied to paddy water, evaluated after 13 days
Procedure, shortened: as §2

[16] = tested on: ducksalad (Heteranthera limosa); assay: as above; conditions: 250 g ai/ha, Flood, applied to paddy water, evaluated after 13 days
Procedure, shortened: as §2

[17] = tested on: soybean (Glycine max); assay: Test A preemergence soil spray, visual injury rating 0-100; conditions: 10 days, 0 = no effect, 100 = complete control
Procedure, shortened: as §1

[18] = tested on: wheat (Triticum aestivum); assay: as above; conditions: 10 days, 0 = no effect, 100 = complete control
Procedure, shortened: as §1

[19] = tested on: barnyardgrass (Echinochloa crus-galli); assay: as above; conditions: 10 days, 0 = no effect, 100 = complete control
Procedure, shortened: as §1

[20] = tested on: oat, wild (wild oat, Avena fatua); assay: as above; conditions: 10 days, 0 = no effect, 100 = complete control
Procedure, shortened: as §1

[21] = tested on: ragweed (common ragweed, Ambrosia artemisiifolia); assay: as above; conditions: 10 days, 0 = no effect, 100 = complete control
Procedure, shortened: as §1

[22] = tested on: ryegrass, Italian (italian ryegrass, Lolium multiflorum); assay: as above; conditions: 10 days, 0 = no effect, 100 = complete control
Procedure, shortened: as §1

[23] = tested on: palmer (palmer amaranth, palmer pigweed, Amaranthus palmeri); assay: as above; conditions: 10 days, 0 = no effect, 100 = complete control
Procedure, shortened: as §1

[24] = tested on: corn (Zea mays); assay: as above; conditions: 10 days, 0 = no effect, 100 = complete control
Procedure, shortened: as §1

[25] = tested on: kochia (Bassia scoparia); assay: as above; conditions: 10 days, 0 = no effect, 100 = complete control
Procedure, shortened: as §1

[26] = tested on: blackgrass (Alopecurus myosuroides); assay: as above; conditions: 10 days, 0 = no effect, 100 = complete control
Procedure, shortened: as §1

[27] = 31 g ai/ha, postemergence, 0 = no effect, 100 = complete control
[28] = Postemergence, 125 g ai/ha, 0 is no effect, 100 is complete control

Compound: CC1(C(=O)NC2C=CC(C(=O)OC3CCCC3)C2)CN(c2cc(Cl)cc(Cl)c2)C(=O)O1 (stereo not drawn) [Compound 59]
- Soybean plant response rating (0-100) [1, 27]: 90
- Soybean plant response rating (0 to 100 scale) [1, 28]: 100
- Galium plant response rating (0-100) [2, 27]: 90
- Galium plant response rating (0 to 100 scale) [2, 28]: 90
- Wheat plant response rating (0-100) [3, 27]: 90
- Wheat plant response rating (0 to 100 scale) [3, 28]: 90
- Barnyardgrass plant response rating (0-100) [4, 27]: 90
- Barnyardgrass plant response rating (0 to 100 scale) [4, 28]: 90
- Oat, Wild plant response rating (0-100) [5, 27]: 60
- Oat, Wild plant response rating (0 to 100 scale) [5, 28]: 90
- Ragweed plant response rating (0-100) [6, 27]: 30
- Ragweed plant response rating (0 to 100 scale) [6, 28]: 80
- Ryegrass, Italian plant response rating (0-100) [7, 27]: 90
- Ryegrass, Italian plant response rating (0 to 100 scale) [7, 28]: 90
- Amaranth, Palmer plant response rating (0-100) [8, 27]: 90
- Amaranth, Palmer / Pigweed, Palmer plant response rating (0 to 100 scale) [8, 28]: 100
- Corn plant response rating (0-100) [9, 27]: 90
- Corn plant response rating (0 to 100 scale) [9, 28]: 100
- Kochia plant response rating (0-100) [10, 27]: 80
- Kochia plant response rating (0 to 100 scale) [10, 28]: 90
- Blackgrass plant response rating (0-100) [11, 27]: 100
- Blackgrass plant response rating (0 to 100 scale) [11, 28]: 100
- Horseweed plant response rating (0-100) [12, 27]: 20
- Horseweed plant response rating (0 to 100 scale) [12, 28]: 70
- Plant response rating, Sedge, Umbrella (0 to 100 scale, 0 is no effect and 100 is complete control) [13]: 98
- Plant response rating, Rice (0 to 100 scale, 0 is no effect and 100 is complete control) [14]: 50
- Plant response rating, Barnyardgrass (0 to 100 scale, 0 is no effect and 100 is complete control) [15]: 90
- Plant response rating, Ducksalad (0 to 100 scale, 0 is no effect and 100 is complete control) [16]: 85
- Soybean plant response rating (0-100) ([17]; 31 g ai/ha): 30
- Soybean plant response rating (0 to 100 scale) ([17]; 125 g ai/ha): 60
- Wheat plant response rating (0-100) ([18]; 31 g ai/ha): 30
- Wheat plant response rating (0 to 100 scale) ([18]; 125 g ai/ha): 70
- Barnyardgrass plant response rating (0-100) ([19]; 31 g ai/ha): 60
- Barnyardgrass plant response rating (0 to 100 scale) ([19]; 125 g ai/ha): 100
- Oat, Wild plant response rating (0-100) ([20]; 31 g ai/ha): 10
- Oat, Wild plant response rating (0 to 100 scale) ([20]; 125 g ai/ha): 80
- Ragweed plant response rating (0-100) ([21]; 31 g ai/ha): 30
- Ragweed plant response rating (0 to 100 scale) ([21]; 125 g ai/ha): 60
- Ryegrass, Italian plant response rating (0-100) ([22]; 31 g ai/ha): 60
- Ryegrass, Italian plant response rating (0 to 100 scale) ([22]; 125 g ai/ha): 80
- Amaranth, Palmer plant response rating (0-100) ([23]; 31 g ai/ha): 100
- Amaranth, Palmer plant response rating (0 to 100 scale) ([23]; 125 g ai/ha): 100
- Corn plant response rating (0-100) ([24]; 31 g ai/ha): 0
- Corn plant response rating (0 to 100 scale) ([24]; 125 g ai/ha): 50
- Kochia plant response rating (0-100) ([25]; 31 g ai/ha): 40
- Kochia plant response rating (0 to 100 scale) ([25]; 125 g ai/ha): 80
- Blackgrass plant response rating (0-100) ([26]; 31 g ai/ha): 0
- Blackgrass plant response rating (0 to 100 scale) ([26]; 125 g ai/ha): 60
